# In ChEMBL document CHEMBL3244168, “Synthesis and antitumor activity of preactivated isophosphamide analogues bearing modified alkylating functionalities” (J Med Chem, 1978):
# Active and inactive are the calls of the source. No cut-off for these calls is given here.
# Key:
# L1210 [1] = assay: Cytotoxicity against mouse L1210 cells assessed as growth inhibition after 72 hrs; assay type: functional; conditions: L1210, 72 h, read-out: ED50 (the source's name)
# L1210 [2] = assay: Antileukemic activity against mouse L1210 cells allografted in ip dosed BDF1 mouse assessed as maximum tolerated dose for survival over 30 days administered 24 hrs; assay type: functional
# L1210 [3] = assay: Antileukemic activity against mouse L1210 cells allografted in ip dosed BDF1 mouse administered 24 hrs; assay type: functional
# L1210 [4] = assay: Ratio of ILSmax to ILS30 for antileukemic activity against mouse L1210 cells allografted in ip dosed BDF1 mouse; assay type: functional
# L1210 [5] = assay: Antileukemic activity against mouse L1210 cells allografted in BDF1 mouse assessed as mean survival time at 10 mg/kg, ip administered 24 hrs (Rvb 4.6 +/- 0.16 days); assay type: functional; conditions: route intraperitoneal
# Rattus norvegicus [6] = assay: Acute toxicity in po dosed Wistar rat; assay type: organism-based; conditions: in vivo
# Mus musculus [7] = assay: Acute toxicity in iv dosed BDF1 mouse; assay type: organism-based; conditions: in vivo
# L1210 [8] = assay: Antileukemic activity against mouse L1210 cells allografted in po dosed BDF1 mouse assessed as survival over 60 days administered 24 hrs; assay type: functional; conditions: read-out: MED
# Mus musculus [9] = assay: Acute toxicity in ip dosed BDF1 mouse; assay type: organism-based; conditions: in vivo
# L1210 [10] = assay: Antileukemic activity against mouse L1210 cells allografted in ip dosed BDF1 mouse assessed as survival over 60 days administered 24 hrs; assay type: functional; conditions: read-out: MED
# Rattus norvegicus [11] = assay: Acute toxicity in ip dosed Wistar rat; assay type: organism-based; conditions: in vivo
# L1210 [12] = assay: Ratio of Cmax to Cmin for antileukemic activity against mouse L1210 cells allografted in ip dosed BDF1 mouse assessed as survival over 60 days; assay type: functional
# L1210 [13] = assay: Antileukemic activity against mouse L1210 cells allografted in BDF1 mouse assessed as increase in life span at 50 mg/kg, ip administered 24 hrs relative to control; assay type: functional; conditions: route intraperitoneal
# L1210 [14] = assay: Antileukemic activity against mouse L1210 cells allografted in iv dosed BDF1 mouse assessed as survival over 60 days administered 24 hrs; assay type: functional; conditions: read-out: MED
# L1210 [15] = assay: Antileukemic activity against mouse L1210 cells allografted in BDF1 mouse assessed as mean survival time at 50 mg/kg, ip administered 24 hrs (Rvb 4.6 +/- 0.16 days); assay type: functional; conditions: route intraperitoneal
# L1210 [16] = assay: Antileukemic activity against mouse L1210 cells allografted in iv dosed BDF1 mouse assessed as maximum tolerated dose for survival over 60 days administered 24 hrs; assay type: functional
# L1210 [17] = assay: Antileukemic activity against mouse L1210 cells allografted in ip dosed BDF1 mouse assessed as maximum tolerated dose for survival over 60 days administered 24 hrs; assay type: functional
# L1210 [18] = assay: Ratio of Cmax to Cmin for antileukemic activity against mouse L1210 cells allografted in po dosed BDF1 mouse assessed as survival over 60 days; assay type: functional
# L1210 [19] = assay: Antileukemic activity against mouse L1210 cells allografted in BDF1 mouse assessed as increase in life span at 2 mg/kg, ip administered 24 hrs relative to control; assay type: functional; conditions: route intraperitoneal
# Rattus norvegicus [20] = assay: Acute toxicity in iv dosed Wistar rat; assay type: organism-based; conditions: in vivo
# L1210 [21] = assay: Antileukemic activity against mouse L1210 cells allografted in BDF1 mouse assessed as mean survival time at 2 mg/kg, ip administered 24 hrs (Rvb 4.6 +/- 0.16 days); assay type: functional; conditions: route intraperitoneal
# L1210 [22] = assay: Antileukemic activity against mouse L1210 cells allografted in po dosed BDF1 mouse assessed as maximum tolerated dose for survival over 60 days administered 24 hrs; assay type: functional
# Mus musculus [23] = assay: Acute toxicity in po dosed BDF1 mouse; assay type: organism-based; conditions: in vivo
# L1210 [24] = assay: Antileukemic activity against mouse L1210 cells allografted in BDF1 mouse assessed as mean survival time at 100 mg/kg, ip administered 24 hrs (Rvb 4.6 +/- 0.16 days); assay type: functional; conditions: route intraperitoneal
# L1210 [25] = assay: Antileukemic activity against mouse L1210 cells allografted in BDF1 mouse assessed as increase in life span at 10 mg/kg, ip administered 24 hrs relative to control; assay type: functional; conditions: route intraperitoneal
# L1210 [26] = assay: Antileukemic activity against mouse L1210 cells allografted in BDF1 mouse assessed as increase in survivor over 30 days at 100 mg/kg, ip administered 24 hrs; assay type: functional, organism-based; parameters: dose 100 mg/kg
# L1210 [27] = assay: Ratio of Cmax to Cmin for antileukemic activity against mouse L1210 cells allografted in iv dosed BDF1 mouse assessed as survival over 60 days; assay type: functional
# L1210 [28] = assay: Antileukemic activity against mouse L1210 cells allografted in BDF1 mouse assessed as increase in life span at 100 mg/kg, ip administered 24 hrs relative to control; assay type: functional; conditions: route intraperitoneal
smiles,measurement,setting,value
CS(=O)(=O)OCCN1C(OO)CCOP1(=O)NCCCl (configuration not stated),EC50,L1210 [1],0.8 µg/mL
same,ILSmax,L1210 [2],75 mg/kg
same,ILS30,L1210 [3],2 mg/kg
same,Ratio,L1210 [4],38
CN(CCCl)P1(=O)OCCC(OO)N1CCOS(C)(=O)=O (configuration not stated),MST,L1210 [5],11.4 days
same,LD10,Rattus norvegicus [6],238 mg/kg
same,LD10,Mus musculus [7],120 mg/kg
same,EC50,L1210 [1],0.8 µg/mL
same,minimal effective dose,L1210 [8],50 mg/kg
same,LD10,Mus musculus [9],134 mg/kg
same,ILSmax,L1210 [2],80 mg/kg
same,minimal effective dose,L1210 [10],10 mg/kg
same,ILS30,L1210 [3],2 mg/kg
same,LD10,Rattus norvegicus [11],41 mg/kg
same,Ratio,L1210 [12],10
same,ILS at 50 mg/kg,L1210 [13],> 468%
same,minimal effective dose,L1210 [14],15 mg/kg
same,MST,L1210 [15],>26.1 days
same,MTD,L1210 [16],100 mg/kg
same,MTD,L1210 [17],100 mg/kg
same,Ratio,L1210 [18],4
same,ILS at 2 mg/kg,L1210 [19],44%
same,LD10,Rattus norvegicus [20],66 mg/kg
same,MST,L1210 [21],6.6 days
same,MTD,L1210 [22],200 mg/kg
same,LD10,Mus musculus [23],284 mg/kg
same,MST,L1210 [24],>15.8 days
same,ILS at 10 mg/kg,L1210 [25],147%
same,Activity,L1210 [26],Active
same,Ratio,L1210 [4],40
same,Ratio,L1210 [27],6.6
same,ILS at 100 mg/kg,L1210 [28],> 242%
CN(CCCl)P1(=O)OCCC(OO)N1CCBr (configuration not stated),EC50,L1210 [1],0.5 µg/mL
same,ILSmax,L1210 [2],35 mg/kg
same,ILS30,L1210 [3],7 mg/kg
same,Ratio,L1210 [4],5
O=P1(NCCBr)OCCC(OO)N1CCBr (configuration not stated),EC50,L1210 [1],2 µg/mL
same,ILSmax,L1210 [2],70 mg/kg
same,ILS30,L1210 [3],6 mg/kg
same,Ratio,L1210 [4],12
CN(CCBr)P1(=O)OCCC(OO)N1CCOS(C)(=O)=O (configuration not stated),EC50,L1210 [1],1 µg/mL
same,ILSmax,L1210 [2],60 mg/kg
same,ILS30,L1210 [3],3 mg/kg
same,Ratio,L1210 [4],20
CN(CCOS(C)(=O)=O)P1(=O)OCCC(OO)N1CCCl (configuration not stated),EC50,L1210 [1],0.5 µg/mL
same,ILSmax,L1210 [2],60 mg/kg
same,ILS30,L1210 [3],3 mg/kg
same,Ratio,L1210 [4],20
CCN(CCCl)P1(=O)OCCC(OO)N1CCOS(C)(=O)=O (configuration not stated),EC50,L1210 [1],0.5 µg/mL
same,ILSmax,L1210 [2],70 mg/kg
same,ILS30,L1210 [3],6 mg/kg
same,Ratio,L1210 [4],12
